Measured values as given in patent publication US20120046308A1, “NOVEL ALPHA-PHENOXYBENZENEACETIC ACID DERIVATIVE AND PHARMACEUTICAL PREPARATION COMPRISING SAME” (KOWA COMPANY, LTD., priority 2009, published 2012).
pEC50, pIC50: −log10 of the molar value.

Columns and labels:
human PPARγ2 = target: T1, human PPARγ2 (Homo sapiens, UniProt P37231); test: PPARγ activation activity, Gal4-PPARγ2 LBD luciferase transfection assay using COS7 cells; assay type: cell-based; conditions: for pEC50: COS7 cells, 16 hours, luciferase activity relative to rosiglitazone = 100%, read-out: EC50; for Emax: COS-7, 16 h, maximum activity strength relative to the maximum activity of rosiglitazone, read-out: % MAX vs Rosiglitazone
T1 construct: the amino acids 182 to 505 of human PPARγ2; expressed in transfected cells; host or cells: COS7 cells (African green monkey kidney)
T1 sequence (P37231 182-505): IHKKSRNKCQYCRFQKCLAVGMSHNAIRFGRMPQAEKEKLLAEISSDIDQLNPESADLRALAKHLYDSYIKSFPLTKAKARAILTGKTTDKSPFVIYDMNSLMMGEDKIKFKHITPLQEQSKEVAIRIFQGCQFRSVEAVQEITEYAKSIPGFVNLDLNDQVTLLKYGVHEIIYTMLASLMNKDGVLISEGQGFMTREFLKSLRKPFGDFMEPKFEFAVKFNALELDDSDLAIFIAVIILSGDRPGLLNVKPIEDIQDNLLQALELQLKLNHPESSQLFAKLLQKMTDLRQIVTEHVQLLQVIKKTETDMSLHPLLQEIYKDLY
Experimental: The agonistic activity of the compounds of the invention on PPARγ was measured based on the transfection assay using COS7 cells (DS Pharma Biomedical Co., Ltd., Osaka, Japan), which are the cell line derived from the kidney of the African green monkey. COS7 cells were cultured under 5% CO2 concentration, and DMEM medium containing 10% fetal bovine serum, glutamic acid, and antibiotics was used as a medium.
As an expression vector, a chimera in which DNA binding domain of Gal4, which is a yeast transcription factor, and ligand binding domain of human PPARγ2 are fused, i.e., a fused product between the amino acids 1 to 147 of Gal4 transcription factor and the amino acids 182 to 505 of human PPARγ2, was used. Furthermore, as a reporter vector, a firefly luciferase containing five copies of Gal4 recognition sequence in the promoter region was used. Plasmid transfection to the cells was performed according to a method which uses jetPEI (trade name, manufactured by Funakoshi Co., Ltd., Tokyo, Japan). Furthermore, β-galactosidase expression vector was employed as an internal standard.
After the transfection of the cells, the medium was replaced with a DMEM medium (containing 1% serum) added with the compound, and the cells were further cultured for 16 hours. After that, the luciferase activity and β-galactosidase activity in the cell lysis solution were measured.
For the present test, dimethyl sulfoxide (DMSO) was used for dissolution and dilution of the test compounds, and during the cell treatment, the DMSO concentration in DMEM medium (containing 1% serum) was adjusted to 0.1%. As a positive compound, rosiglitazone (trade name, manufactured by ALEXIS Corporation, Switzerland) was used. The luciferase activity (%) of the test compounds (1 to 30 μmol/L) was calculated when the luciferase activity of rosiglitazone (3 to 10 μmol/L) is 100% and the luciferase activity in the absence of the test compound is 0%. The 50% effective concentration of the test compound (EC50, 50% effect concentration) was calculated by using SAS Preclinical Package Ver5.0 (trade name, manufactured by SAS institute Japan Co., Tokyo, Japan), which is a statistical analysis program.

[1] = target: T2, angiotensin II type 1 receptor (Oryctolagus cuniculus, UniProt P34976); test: Angiotensin II antagonistic activity in isolated rabbit blood vessels (thoracic aorta ring contraction); conditions: angiotensin II (10 nM)-induced contraction
T2 construct: By using a specimen of isolated rabbit blood vessels; from tissue; host or cells: rabbit (New Zealand White) thoracic aorta ring
T2 sequence (P34976 1-359): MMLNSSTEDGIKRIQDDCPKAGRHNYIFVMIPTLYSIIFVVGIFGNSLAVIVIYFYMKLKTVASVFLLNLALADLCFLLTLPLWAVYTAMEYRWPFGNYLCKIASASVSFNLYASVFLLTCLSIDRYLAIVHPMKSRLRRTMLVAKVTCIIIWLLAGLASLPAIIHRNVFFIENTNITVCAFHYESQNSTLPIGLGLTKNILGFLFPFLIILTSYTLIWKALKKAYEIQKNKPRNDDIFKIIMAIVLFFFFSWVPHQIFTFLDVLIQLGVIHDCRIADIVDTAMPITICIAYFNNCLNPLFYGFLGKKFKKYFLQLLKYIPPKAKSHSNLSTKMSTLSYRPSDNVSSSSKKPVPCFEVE
Experimental: By using a specimen of isolated rabbit blood vessels, antagonistic activity of the compounds of the invention against angiotensin II type 1 receptor was estimated from a dose-response curve of angiotensin II-induced blood vessel contraction.
During the measurement, the inside temperature of the magnus bath was maintained at 37° C. and the bath was continuously ventilated with a sufficient amount of mixed gas (95% O2 and 5% CO2). The angiotensin II-induced contraction was converted into a relative value (%) that is based on the angiotensin II (10 nM)-induced contraction in the absence of the compounds of each example. From the concentration-response curve obtained therefrom, 50% inhibition concentration (IC50 value) was calculated by using SAS Preclinical Package Ver5.0 (trade name, manufactured by SAS institute Japan Co., Tokyo, Japan), which is a statistical analysis program.

| Compound | pEC50 (human PPARγ2) | pIC50 [1] | Emax (human PPARγ2) |
| --- | --- | --- | --- |
| CCCCc1nc(C)n(-c2ncc(OC)cn2)c(=O)c1Cc1cc(CCC)c(OC(C(=O)O)c2ccccc2)c(CCC)c1 (single isomer, unassigned; (+)) [Example 17, (+)-2-[4-[{4-butyl-1-(5-methoxypyrimidin-2-yl)-2-methyl-6-oxo-1,6-dihydropyrimidin-5-yl}methyl]-2,6-dipropylphenoxy]-2-phenylacetic acid] | 5.43 |  |  |
| CCCCc1nc(C)n(-c2ncc(OC)cn2)c(=O)c1Cc1cc(CCC)c(OC(C(=O)O)c2ccccc2)c(CCC)c1 (single isomer, unassigned; (-)) [Example 16, (−)-2-[4-[{4-butyl-1-(5-methoxypyrimidin-2-yl)-2-methyl-6-oxo-1,6-dihydropyrimidin-5-yl}methyl]-2,6-dipropylphenoxy]-2-phenylacetic acid] | 5.84 | 7.24 | 44.4% |
| CCCc1cc(Cc2c(CCC)nc(C)n(-c3ccccn3)c2=O)cc(CCC)c1OC(C(=O)O)c1ccccc1 (stereo not drawn) [Example 2, 2-[4-[{2-methyl-6-oxo-4-propyl-1-(pyridin-2-yl)-1,6-dihydropyrimidin-5-yl}methyl]-2,6-dipropylphenoxy]-2-phenylacetic acid] | 5.41 |  | 25.2% |
| CCCc1cc(Cc2c(CC)nc(C)n(-c3ccccn3)c2=O)cc(CCC)c1OC(C(=O)O)c1ccccc1 (stereo not drawn) [Example 3] | 5.45 |  |  |
| CCCCc1nc(C)n(-c2ccccn2)c(=O)c1Cc1cc(CCC)c(OC(c2ccccc2)c2nnn[nH]2)c(CCC)c1 (stereo not drawn) [Example 4, 6-butyl-2-methyl-5-[4-{phenyl(1H-tetrazol-5-yl)methoxy}-3,5-dipropylbenzyl]-3-(pyridin-2-yl)pyrimidin-4(3H)-one] | 5.76 |  |  |
| CCCCc1nc(C)n(-c2ccccn2)c(=O)c1Cc1cc(CCC)c(OC(c2ccccc2)c2noc(=O)[nH]2)c(CCC)c1 (stereo not drawn) [Example 5, 3-[[4-[{4-butyl-2-methyl-6-oxo-1-(pyridin-2-yl)-1,6-dihydropyrimidin-5-yl}methyl]-2,6-dipropylphenoxy](phenyl)methyl]-1,2,4-oxadiazol-5(4H)-one] | 5.92 |  | 35.1% |
| CCCCc1nc(C)n(-c2ccccn2)c(=O)c1Cc1cc(CCC)c(OC(C(=O)NS(C)(=O)=O)c2ccccc2)c(CCC)c1 (stereo not drawn) [Example 6, 2-[4-[{4-butyl-2-methyl-6-oxo-1-(pyridin-2-yl)-1,6-dihydropyrimidin-5-yl}methyl]-2,6-dipropylphenoxy]-N-(methylsulfonyl)-2-phenyl acetoamide] | 5.50 |  |  |
| CCCCc1nc(C)n(-c2ccccn2)c(=O)c1Cc1cc(CCC)c(OC(C(=O)O)c2ccccc2Cl)c(CCC)c1 (stereo not drawn) [Example 7] | 5.46 |  | 23.3% |
| CCCCc1nc(C)n(-c2ccccn2)c(=O)c1Cc1cc(CCC)c(OC(C(=O)O)c2cccc(Cl)c2)c(CCC)c1 (stereo not drawn) [Example 8, 2-[4-[{4-butyl-2-methyl-6-oxo-1-(pyridin-2-yl)-1,6-dihydropyrimidin-5-yl}methyl]-2,6-dipropylphenoxy]-2-(3-chlorophenyl)acetic acid] | 5.69 |  | 41.4% |
| CCCCc1nc(C)n(-c2ccccn2)c(=O)c1Cc1cc(CCC)c(OC(C(=O)O)c2ccccc2OC)c(CCC)c1 (stereo not drawn) [Example 10, 2-[4-[{4-butyl-2-methyl-6-oxo-1-(pyridin-2-yl)-1,6-dihydropyrimidin-5-yl}methyl]-2,6-dipropylphenoxy]-2-(2-methoxyphenyl)acetic acid] | 5.48 |  | 25.6% |
| CCCCc1nc(C)n(-c2ccccn2)c(=O)c1Cc1cc(CCC)c(OC(c2nnn[nH]2)c2ccccc2Cl)c(CCC)c1 (stereo not drawn) [Example 11, 6-butyl-5-[4-{(2-chlorophenyl)(1H-tetrazol-5-yl)methoxy}-3,5-dipropylbenzyl]-2-methyl-3-(pyridin-2-yl)pyrimidin-4(3H)-one] | 5.58 |  |  |
| CCCCc1nc(C)n(-c2ccc(OCC)cc2)c(=O)c1Cc1cc(CCC)c(OC(C(=O)O)c2ccccc2)c(CCC)c1 (stereo not drawn) [Example 13] | 6.32 |  | 42.9% |
| CCCCc1nc(C)n(-c2ncc(OC)cn2)c(=O)c1Cc1cc(CCC)c(OC(C(=O)O)c2ccc(Cl)cc2)c(CCC)c1 (stereo not drawn) [Example 18, 2-[4-[{4-butyl-1-(5-methoxypyrimidin-2-yl)-2-methyl-6-oxo-1,6-dihydropyrimidin-5-yl}methyl]-2,6-dipropylphenoxy]-2-(4-chlorophenyl)acetic acid] | 5.85 |  | 49.1% |
| CCCCc1nc(C)n(-c2ncc(OCc3ccccc3)cn2)c(=O)c1Cc1cc(CCC)c(OC(C(=O)O)c2ccccc2)c(CCC)c1 (stereo not drawn) [Example 19, 2-[4-[[1-[5-(benzyloxy)pyrimidin-2-yl]-4-butyl-2-methyl-6-oxo-1,6-dihydropyrimidin-5-yl]methyl]-2,6-dipropylphenoxy]-2-phenylacetic acid] | 6.19 |  | 49.9% |
| CCCCc1nc(C)n(-c2ncc(OCCCC(N)=O)cn2)c(=O)c1Cc1cc(CCC)c(OC(C(=O)O)c2ccccc2)c(CCC)c1 (stereo not drawn) [Example 23] |  | 7.17 |  |
| CCCCc1nc(C)n(-c2ncc(OCCSC)cn2)c(=O)c1Cc1cc(CCC)c(OC(C(=O)O)c2ccccc2)c(CCC)c1 (stereo not drawn) [Example 24, 2-[4-[[4-butyl-2-methyl-1-[5-{2-(methylthio)ethoxy}pyrimidin-2-yl]-6-oxo-1,6-dihydropyrimidin-5-yl]methyl]-2,6-dipropylphenoxy]-2-phenylacetic acid] | 5.87 |  | 39.8% |
| CCCCc1nc(C)n(-c2ncc(OCC[S+](C)[O-])cn2)c(=O)c1Cc1cc(CCC)c(OC(C(=O)O)c2ccccc2)c(CCC)c1 (stereo not drawn) [Example 25] |  | 7.12 |  |
| CCCCc1nc(C)n(-c2ncc(OCCS(C)(=O)=O)cn2)c(=O)c1Cc1cc(CCC)c(OC(C(=O)O)c2ccccc2)c(CCC)c1 (stereo not drawn) [Example 26, 2-[4-[[4-butyl-2-methyl-1-[5-{2-(methylsulfonyl)ethoxy}pyrimidin-2-yl]-6-oxo-1,6-dihydropyrimidin-5-yl]methyl]-2,6-dipropylphenoxy]-2-phenylacetic acid] |  | 6.45 |  |
| CCCCc1nc(C)n(-c2ncc(O)cn2)c(=O)c1Cc1cc(CCC)c(OC(C(=O)O)c2ccccc2)c(CCC)c1 (stereo not drawn) [Example 27, 2-[4-[{4-butyl-1-(5-hydroxypyrimidin-2-yl)-2-methyl-6-oxo-1,6-dihydropyrimidin-5-yl}methyl]-2,6-dipropylphenoxy]-2-phe nylacetic acid] |  | 6.33 |  |
| CCCCc1nc(C)nc(OCc2ccccc2)c1Cc1cc(CCC)c(OC(C(=O)O)c2ccccc2)c(CCC)c1 (stereo not drawn) [Example 29] | 5.60 |  |  |
| CCCCc1nc(CCc2ccc(CC)cn2)[nH]c(=O)c1Cc1cc(CCC)c(OC(C(=O)O)c2ccccc2)c(CCC)c1 (stereo not drawn) [Example 31] | 5.92 |  |  |
| CCCCc1nc(C)nc(OCCOC)c1Cc1cc(CCC)c(OC(C(=O)O)c2ccccc2)c(CCC)c1 (stereo not drawn) [Example 32, 2-[4-[{4-butyl-6-(2-methoxyethoxy)-2-methylpyrimidin-5-yl}methyl]-2,6-dipropylphenoxy]-2-phenylacetic acid] | 5.62 |  |  |
